Laboratory results reported in patent US20120142109A1, “METHOD FOR PRODUCING T CELL POPULATION UNDER PRESENCE OF RETINOIC ACID” (priority 2009, published 2012).

Key:
Format in all cases: cell-based, human
gene-transferred cell = test: Provirus copy number of the transferred gene; details: Example 3, FIG. 11; ZsGreen gene, virus-bound plate; 10 nM retinoic acid; 7th day
Experimental: The provirus copy number of the transferred gene in the gene-transferred cell was measured with Provirus Copy Number Detection Primer Set. Human (manufactured by TAKARA BIO INC.). In FIG. 6, the ordinate axis indicates the copy number of the transferred gene in a gene-transferred cell. As a result, the copy number was increased by a combination of stimulation by an anti-CD3 antibody alone or fibronectin fragment/anti-CD3 antibody stimulation with addition of retinoic acid, and the increase of the copy number correlated with increase in gene transfer efficiency.
The results of measurement of the copy number of the transferred gene in the gene-transferred cell into which the gene was transferred using the virus-bound plate for gene transfer are shown in FIG. 11. In FIG. 11, the ordinate axis indicates the copy number of the transferred gene in the gene-transferred cell. As a result, the copy number under the combination condition of stimulation by an anti-CD3 antibody alone or fibronectin fragment/anti-CD3 antibody stimulation with addition of retinoic acid was about 2 times the copy number under the condition of no addition of retinoic acid. The copy number correlated with gene transfer efficiency.
The provirus copy number of the transferred gene in the cultured cells was measured using Provirus Copy Number Detection Primer Set. Human (manufactured by TAKARA BIO INC.). […]

[1] = test system: CD8 single positive and CD4 single positive cells; test: Proportion of ZsGreen positive cells by flow cytometry; details: Example 3, FIG. 9; gene transfer using virus-bound (fibronectin fragment) plate; 10 nM retinoic acid; 7th day
Experimental: A gene transfer operation was carried out as follows. […] The plate was cultured at 37° C. for 4 hours in a CO2 incubator. The cells after culturing were suspended at 0.1×10^6 cells/mL in a GT-T503 medium containing 1% autologous plasma, 720 IU/mL IL-2, 0.2% HSA, 2.5 μg/mL Fungizone and 10 nM retinoic acid. The resulting suspension was seeded on a 12-well plate, and cultured at 37° C. for 3 days. At the same time, a gene transfer operation and cell culture after gene transfer were similarly carried out using a cell suspension not containing retinoic acid as a control.
Regarding gene transfer using a virus-bound plate for gene transfer, the cell growth rate was measured on the 4th and 7th days, and cell surface markers, the proportion of ZsGreen positive cells and the copy number of a transferred gene were measured on the 7th day.
After initiation of stimulation of the PBMC, the cells on the 7th day in the case of gene transfer using the virus-bound plate for gene transfer, and the cells on the 6th day in the case of gene transfer by a polybrene method were reacted with a PE-Cy7-labeled anti-human CD4 antibody or an APC-Cy7-labeled anti-human CD8 antibody (manufactured by Becton Dickinson) at 4° C. for 20 minutes, washed and, then subjected to flow cytometry analysis using FACScant (manufactured by Becton Dickinson).

[2] = test system: T2A24 cell pulsed with MAGE-A4; test: Specific cytotoxic activity of gene-transferred cells, Calcein release
Experimental: Analysis of cytotoxicity of the gene-transferred cell on a MAGE-A4-derived peptide p143 was carried out. […] The suspension was cultured at 37° C. for 1 hour. The cells were washed with a medium not containing Calcein-AM, and mixed with a 10-fold amount of K562 cells (ATCC CCL-243) to prepare Calcein-labeled target cells. The K562 cells were used in order to exclude nonspecific cytotoxic activity due to NK cells commingling with responder cells. The cells on the 10th day after initiation of culture as effector cells were stepwisely diluted with a RPMI 1640 medium containing 10% FBS so as to be 1×10^5 to 1×10^6 cells/mL. Then, 100 μL/well of the dilution was dispended into each well of a 96-well cell culture plate. The Calcein-labeled target cells were adjusted to 1×10^5/mL and added to the wells at 100 μL/well. […] From the each well, 100 μL of the culture supernatant was removed, and the amount of Calcein released into the culture supernatant was measured with a fluorescent plate reader (485 nm/538 nm). “Specific cytotoxic activity (%)” was calculated according to the following mathematical formula 1.
Specific cytotoxic activity(%)=[{(measured value of each well)−(minimum released amount)}/{(maximum released amount)−(minimum released amount)}]×100 [Mathematical formula 1] […]

PBMC = test: Cell growth rate relative to cell number at initiation of culture; details: Example 2, FIG. 2; fibronectin fragment/anti-CD3 antibody stimulation compared with anti-CD3 antibody alone, regardless of presence or absence of retinoic acid
Experimental: A PBMC prepared from a healthy person from whom informed consent had been obtained was suspended at 0.18×10^6 cells/mL in a GT-T503 medium containing 1% autologous plasma, 720 IU/mL IL-2, 0.2% HSA, 2.5 μg/mL Fungizone and 10 nM retinoic acid. The suspension was added to the fibronectin fragment/anti-CD3 antibody-adherent plate or the anti-CD3 antibody-adherent plate at 2.65 mL/well. As controls, a cell suspension not containing retinoic acid was added to the plates. Each plate was cultured at 37° C. for 4 days in a CO2 incubator.
A gene transfer operation was carried out as follows. The PBMC which had been stimulated with an anti-CD3 antibody alone or a fibronectin fragment/an anti-CD3 antibody for 4 days was added to the virus-bound plate at 0.8×10^6 cells/2.0 mL/well. This plate was cultured at 37° C. overnight in a CO2 incubator. […]
On the 7th day after initiation of stimulation of the PBMC, the cell was seeded at 0.1×10^6 cells/mL, and cultured until the 10th day. The cell growth rate was measured on the 4th, 5th, 7th and 10th days. On the 4th day, cell surface markers before the cell was transferred to the virus-bound plate were measured. On the 10th day, cell surface markers, expression of a transferred TCR and the copy number of a transferred gene were measured. […]

Compound | copy number of the transferred gene relative to no addition of retinoic acid (gene-transferred cell) | increase of proportion of ZsGreen positive cells as compared with no addition of retinoic acid [1] | cytotoxic activity on the specific target cells ([2]; Example 4, FIG. 15, retinoic acid stimulation group vs absence, cells on 10th day, each E/T ratio) | cytotoxic activity on the specific target cells ([2]; Example 5, FIG. 22, RR, OR and R- groups vs O-, E/T 1:1, cells on 11th day) | cell growth rate (PBMC)
CC1=C(/C=C/C(C)=C/C=C/C(C)=C/C(=O)O)C(C)(C)CCC1 [retinoic acid] | about 2 times | 1.5 fold | high | higher | –
fibronectin fragment: recombinant fibronectin fragment CH-296, commercially available as RetroNectin (TAKARA BIO INC.) | – | – | – | – | higher
